EP0017484A1, “2-Imidazoline derivatives, process for the preparation thereof and the pharmaceutical composition of the same” (FUJISAWA PHARMACEUTICAL CO., LTD., priority 1979, dated 1980)

What was measured:
Sprague-Dawley rats = experiment: Anti-inflammatory activity: carrageenin hind paw edema; type: in vivo; settings: 100 mg/kg orally 60 minutes before carrageenin (1.5%, 0.1 ml); paw weight after 3 hours versus control animals
Method: Ten Sprague-Dawley rats were used per group. The right hind paw of the rat was injected subcutaneously under the plantar surface with 0.1 ml of carrageenin (1.5%). After 3 hours, the animals were sacrificed. The normal and edematous hind paws were cut off at the tibio-dorsal joint and weighed. The difference in the weight of edematous paw and that of normal paw was a measure of the edema. The test compound (100 mg/kg) was administered orally 60 minutes before the irritating agent. Paw swelling of treated animals was compared with that of control animals.

male ddy strain mice = experiment: Analgesic activity: acetic acid writhing syndrome; type: in vivo; settings: Mus musculus, po; orally 60 minutes before i.p. 0.6% acetic acid; writhing observed from 3 to 13 minutes; Litchfield-Wilcoxon method
Method: Ten male ddy strain mice were used for each dose. To estimate the frequency of writhing syndrome, the animals were observed from 3 to 13 minutes after an intraperitoneal injection of 0.2 ml/10 g of 0.6% acetic acid. The drugs were given orally 60 minutes before acetic acid. The frequency of writhing syndrome in the treated animals was compared with that in the non-treated control animals.
The ED50 value was calculated according to Litchfield-Wilcoxon method.

Row | SMILES | Inhibitory effect (Sprague-Dawley rats) [%] | ED50 (male ddy strain mice) [mg/kg]
1 | Cc1ccc(NC2=NCCN2)c(Oc2ccccc2)c1 [2-(2-Phenoxy-4-methylphenyl)amino-2-imidazoline] | 48.4 | 
2 | COc1cc(Oc2ccccc2NC2=NCCN2)cc(OC)c1OC [2-[2-(3,4,5-Trimethoxyphenoxy)phenyl]amino-2-imidazoline] |  | 50.1
